One series relates to LNCaP cells. Nature of the series: In vitro combination of CG5757 and chemotherapeutic agents. Type of series: cell-based, human. The method, then:
(§1) Potential synergism between existing chemotherapeutic agents and the replication competent vectors of the present invention was investigated. Co-application of CG5757 with a variety of known chemotherapeutic agents was evaluated using an in vitro cell assay. A variety of known chemotherapeutic agents were tested in combination with CG5757 for their in vitro cytotoxic effect on Hep3B and LNCaP cells.

In the next series the test system is Hep3B cells. The description is as above. Type of series: cell-based, human. The method, then:
as §1

As to `CC(=O)O[C@H]1C(=O)[C@@]2(C)[C@H]([C@H](OC(=O)c3ccccc3)[C@]3(O)C[C@H](OC(=O)[C@H](O)[C@@H](NC(=O)c4ccccc4)c4ccccc4)C(C)=C1C3(C)C)[C@]1(OC(C)=O)CO[C@@H]1C[C@@H]2O` [Taxol], the “combination effect with CG5757” value in the series with LNCaP cells is listed as “potential synergistic cytotoxicity”.

For the compound `COc1cccc2c1C(=O)c1c(O)c3c(c(O)c1C2=O)C[C@@](O)(C(=O)CO)C[C@@H]3O[C@H]1C[C@H](N)[C@H](O)[C@H](C)O1` [doxorubicin], in the series with Hep3B cells, the “combination effect with CG5757” value was “potential synergistic cytotoxicity”. Also, the cytotoxicity entry in the series on Hep3B cells (5 ng/ml, agent alone) is on record as “did not generate cytotoxicity”.

The values are drawn from US7473418B2, “Pan cancer oncolytic vectors and methods of use thereof” (Cell Genesys, Inc., priority 2004, dated 2009).
